Test results reported in ChEMBL document CHEMBL1147235, “Isolation and structure determination of lyngbyastatin 3, a lyngbyastatin 1 homologue from the marine cyanobacterium Lyngbya majuscula. Determination of the configuration of the 4-amino-2,2-dimethyl-3-oxopentanoic acid unit in majusculamide C, dolastatin 12, lyngbyastatin 1, and lyngbyastatin 3 …” (J Nat Prod, 2003).
The source made the active and inactive calls. No cut-off for these calls is given here. *1 amine or outer side, *2 acyl side, *3 side chain or, on linkers, in order; H or OH if unused. Where a SMILES comes first, the peptide text is derived from it. [ ]: non-standard residue; d: D form. X2 = CCC[C@@H](N[*:1])[C@H](C)C(=O)O[C@H](C(=O)[*:2])[C@H](C)CC; X1 = C[C@H](N[*:1])C(=O)C(C)(C)C(=O)[*:2]; NMeY = CN[C@@H](Cc1ccc(O)cc1)C(=O)O; NMeL = CN[C@@H](CC(C)C)C(=O)O; NMeV = CN[C@H](C(=O)O)C(C)C; NMeA = CN[C@@H](C)C(=O)O

What was measured:
KB = assay: Cytotoxicity against human KB cells; type: functional, cell-based
LoVo = assay: Cytotoxicity against human LoVo cells; type: functional, cell-based
Mus musculus = assay: Antitumor activity against mouse mammary adenocarcinoma 16/C cells implanted mouse; type: functional
MC-38 = assay: Antitumor activity against mouse colon 38 cells implanted mouse; type: functional, cell-based

For `CCC[C@H]1NC(=O)[C@H](C)N(C)C(=O)C(C)(C)C(=O)[C@H](C)NC(=O)[C@H](Cc2ccc(OC)cc2)N(C)C(=O)[C@H](C(C)C)N(C)C(=O)CNC(=O)[C@H](CC(C)C)N(C)C(=O)CNC(=O)[C@H]([C@H](C)CC)OC(=O)[C@H]1C` [lyngbyastatin 3] (cyclo(G[NMeL]G[NMeV][NMeY](Me)[X1][NMeA][X2])), the IC50 (KB) was 32 nM, the IC50 (LoVo) was 400 nM and the Activity (Mus musculus) was “inactive”. The Activity (MC-38) was “inactive”.
